From patent US20070128217A1 (priority 2003, published 2007)

Tests used:
[1] = tested on: antibodies in sera from SARS patients (sera 1a, 1b, 2, 6, 37, 62, London, SARS-yellow, SARS-green); assay type: binding, human; set-up: Binding of serum 6 to linear peptides of protein X1 of SARS-CoV Urbani / Binding of serum 37 to linear peptides of protein X1 of SARS-CoV Urbani / Binding of serum 6 to looped/cyclic peptide (PEPSCAN-ELISA) / Binding of serum 37 to looped/cyclic peptide (PEPSCAN-ELISA) / Binding of serum 37 to looped/cyclic peptides of protein X1 of SARS-CoV Urbani / Binding of serum 6 to linear peptides of protein X2 / Binding of serum 37 to linear peptides of protein X2 / Binding of serum 37 to looped/cyclic peptides of protein X2 of SARS-CoV Urbani / Binding of serum 6 to linear peptides of protein M of SARS-CoV Urbani / Binding of serum 37 to linear peptides of protein M of SARS-CoV Urbani / Binding of serum 6 to looped/cyclic peptides of protein M of SARS-CoV Urbani / Binding of serum 37 to looped/cyclic peptides of protein M of SARS-CoV Urbani / Binding of serum 6 to linear peptides of protein X3 of SARS-CoV Urbani / Binding of serum 37 to linear peptides of protein X3 of SARS-CoV Urbani / Binding of serum 37 to looped/cyclic peptides of protein X3 of SARS-CoV Urbani / Binding of serum 6 to linear peptides of protein X4 of SARS-CoV Urbani / Binding of serum 37 to linear peptides of protein X4 of SARS-CoV Urbani / Binding of serum 37 to looped/cyclic peptides of protein X4 of SARS-CoV Urbani / Binding of serum 6 to linear peptides of protein X5 of SARS-CoV Urbani / Binding of serum 37 to linear peptides of protein X5 of SARS-CoV Urbani / Binding of serum 37 to looped/cyclic peptides of protein X5 of SARS-CoV Urbani / Binding of serum 6 to linear peptides of protein N of SARS-CoV Urbani / Binding of serum 37 to linear peptides of protein N of SARS-CoV Urbani / Binding of serum 6 to linear peptide (PEPSCAN-ELISA) / Binding of serum 1a to looped/cyclic peptides of protein N of SARS-CoV Urbani / Binding of serum 1b to looped/cyclic peptides of protein N of SARS-CoV Urbani / Binding of serum 2 to looped/cyclic peptides of protein N of SARS-CoV Urbani / Binding of serum 6 to looped/cyclic peptides of protein N of SARS-CoV Urbani / Binding of serum 37 to looped/cyclic peptides of protein N of SARS-CoV Urbani / Binding of serum 62 to looped/cyclic peptides of protein N of SARS-CoV Urbani / Binding of serum London to looped/cyclic peptides of protein N of SARS-CoV Urbani / Binding of serum SARS-green to looped/cyclic peptides of protein N of SARS-CoV Urbani: unit not given here
[2] = tested on: control sera (pooled serum of ten healthy LUMC hospital workers; commercial negative donor pooled serum from the Dutch bloodbank); assay type: binding, human; set-up: Binding of Control serum LUMC to linear peptides / Binding of Control serum Blood-bank to linear peptides / Binding of Control serum LUMC to looped peptides / Binding of Control Serum Blood-Bank to Looped peptides / Binding of Control serum LUMC to linear peptides of the protein M of SARS-CoV Urbani / Binding of Control serum Blood-bank to linear peptides of the protein M of SARS-CoV Urbani / Binding of Control serum LUMC to looped peptides of the protein M of SARS-CoV Urbani / Binding of Control Serum Blood-Bank to Looped peptides of the protein M of SARS-CoV Urbani: unit not given here
[3] = tested on: rabbit serum obtained by immunizing a rabbit with the SARS-CoV strain Frankfurt 1; assay type: binding; set-up: Binding of a rabbit serum to linear peptides / Binding of a rabbit serum to looped peptides / Rabbit serum linear peptides / Rabbit serum looped peptides / Binding of a rabbit serum to linear peptides of protein N of SARS-CoV Urbani (Rabbit serum linear peptides) / Binding of a rabbit serum to looped/cyclic peptides of protein N of SARS-CoV Urbani (Rabbit serum looped peptides): unit not given here

| Sequence | Binding of serum 1a to linear peptides of protein X1 of SARS-CoV Urbani [1] | Binding of serum 1a to looped/cyclic peptides of protein X1 of SARS-CoV Urbani [1] | Binding of serum 1b to linear peptides of protein X1 of SARS-CoV Urbani [1] | Binding of serum 1b to looped/cyclic peptides of protein X1 of SARS-CoV Urbani [1] | Binding of serum 2 to linear peptides of protein X1 of SARS-CoV Urbani [1] | Binding of serum 2 to looped/cyclic peptides of protein X1 of SARS-CoV Urbani [1] | Binding of serum 6 to linear peptides of protein X1 of SARS-CoV Urbani [1] | Binding of serum 6 to looped/cyclic peptides of protein X1 of SARS-CoV Urbani [1] | Binding of serum 37 to linear peptides of protein X1 of SARS-CoV Urbani [1] | Binding of serum 37 to looped/cyclic peptides of protein X1 of SARS-CoV Urbani [1] | Binding of serum 62 to linear peptides of protein X1 of SARS-CoV Urbani [1] | Binding of serum London to linear peptides of protein X1 of SARS-CoV Urbani [1] | Binding of serum SARS-green to linear peptides of protein X1 of SARS-CoV Urbani [1] | Binding of serum SARS-yellow to linear peptides of protein X1 of SARS-CoV Urbani [1] | Binding of Control Serum Blood-Bank to Looped peptides [2] | Binding of Control serum Blood-bank to linear peptides [2] | Binding of Control serum LUMC to linear peptides [2] | Binding of Control serum LUMC to looped peptides [2] | Binding of a rabbit serum to linear peptides [3] | Binding of a rabbit serum to looped peptides [3] | further results |
| --- | --- | --- | --- | --- | --- | --- | --- | --- | --- | --- | --- | --- | --- | --- | --- | --- | --- | --- | --- | --- | --- |
| SVTDTIVVTEGDGIS | 0.6 | 0.3 | 0.5 | 0.2 | 0.4 | 0.1 | 0.4 | 0.1 | 0.5 | 0.3 | 0.5 | 0.2 | 0.1 | 0.4 | 0.3 | 0.4 | 0.4 | 0.3 | 0.1 | 0.4 | Binding of serum 62 to looped/cyclic peptides of protein X1 of SARS-CoV Urbani [1]: 0.3; Binding of serum London to looped/cyclic peptides of protein X1 of SARS-CoV Urbani [1]: 0.1; Binding of serum SARS-green to looped/cyclic peptides of protein X1 of SARS-CoV Urbani [1]: 0.2; Binding of serum SARS-yellow to looped/cyclic peptides of protein X1 of SARS-CoV Urbani [1]: 0.2 |
| TATIPLQASLPFGWL | 0.9 |  | 0.8 |  | 0.6 |  | 0.7 |  | 0.7 |  | 0.7 | 0.3 | 0.5 | 0.3 | 0.8 | 1.0 | 0.8 | 0.8 | 0.1 | 0.6 | Binding of serum 1a to looped/cyclic peptide (PEPSCAN-ELISA) [1]: 0.7; Binding of serum 1b to looped/cyclic peptide (PEPSCAN-ELISA) [1]: 0.6; Binding of serum 2 to looped/cyclic peptide (PEPSCAN-ELISA) [1]: 0.5; Binding of serum 6 to looped/cyclic peptide (PEPSCAN-ELISA) [1]: 0.5; Binding of serum 37 to looped/cyclic peptide (PEPSCAN-ELISA) [1]: 0.8; Binding of serum 62 to looped/cyclic peptide (PEPSCAN-ELISA) [1]: 0.8; Binding of serum London to looped/cyclic peptide (PEPSCAN-ELISA) [1]: 0.3; Binding of serum SARS-green to looped/cyclic peptide (PEPSCAN-ELISA) [1]: 0.5; Binding of serum SARS-yellow to looped/cyclic peptide (PEPSCAN-ELISA) [1]: 0.5 |
| TDTGIENATFFIFNK | 0.7 | 0.5 | 0.4 | 0.5 | 0.5 | 0.5 | 0.7 | 0.5 | 0.6 | 0.7 | 0.5 | 0.3 | 0.5 | 0.0 | 0.8 | 0.6 | 0.4 | 0.6 | 0.1 | 0.6 | Binding of serum 62 to looped/cyclic peptides of protein X1 of SARS-CoV Urbani [1]: 0.7; Binding of serum London to looped/cyclic peptides of protein X1 of SARS-CoV Urbani [1]: 0.3; Binding of serum SARS-green to looped/cyclic peptides of protein X1 of SARS-CoV Urbani [1]: 0.4; Binding of serum SARS-yellow to looped/cyclic peptides of protein X1 of SARS-CoV Urbani [1]: 0.5 |
